In experiment [1] the test system is primary human fibroblasts derived from IPF patients (LL29 cells) treated with TGF-β1. Briefly: Inhibition of the fibrotic process: αSMA staining in TGF-β1 treated primary human fibroblasts from IPF patients (LL29 cells). It is filed as cell-based. The settings on record: Fibroblast, 96 h, TGF-β1 20 ng/mL, 4 days, % αSMA positive cells. The method in brief: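 LL29 cells plated in F12 with 1% FBS, compounds added as 11-point 1:2 series (10 μM to 1.87 nM, 0.1% DMSO), then TGF-β1 20 ng/mL; 4 days at 37 °C. Fixed, αSMA immunostained, imaged; SYTOX-positive cells excluded. % αSMA-positive cells normalized to TGF-β1 wells; EC50 by non-linear regression, or % inhibition at 10 μM.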

Experiment [2] deals with primary human mesenchymal stem cells (hMSCs). Briefly: Induction of chondrogenesis in primary human mesenchymal stem cells (hMSCs), nodule count. It is filed as cell-based. The conditions noted are these: 144 h, 6 days; for EC50: concentration required to induce 50% levels of chondrogenesis of TGF-β3 control, read-out: Conc (nM) of 50% TGF-β3 activity; for Emax: relative to TGF-β3 (10 ng/mL) positive control, read-out: Max. Activity as % TGF-β3 activity. As to the method: Representative compounds were screened using primary human mesenchymal stem cells (hMSCs) to determine their ability to induce chondrogenesis (process by which cartilage is developed).
Primary human mesenchymal stem cells (hMSCs) were purchased from Lonza (Walkersville, Md.) and expanded in Mesenchymal Stem Cell Growth Media (Lonza). Cells between passage 3 and 6 were used for the experiments.
Each compound was dissolved in DMSO as a 10 mM stock and used to prepare compound source plates. Serial dilution (1:3, 6-point dose-response curves from 2700 nM to 10 nM) and compound transfer was performed using the ECHO 550 (Labcyte, Sunnyvale, Calif.) into 96-well clear bottom assay plates (Greiner Bio-One) with appropriate DMSO backfill for a final DMSO concentration of 0.03%. hMSCs were plated at 20,000 cells/well in 250 μL/well Incomplete Chondrogenic Induction Medium (Lonza; DMEM, dexamethasone, ascorbate, insulin-transferrin-selenium [ITS supplement], gentamycin-amphotericin [GA-1000], sodium pyruvate, proline and L-glutamine). TGF-β3 (10 ng/mL) was used as a positive control for differentiation while negative control wells were treated with 75 nL DMSO for normalization and calculating EC50 values. Cells were incubated at 37° C. and 5% CO2 for 6 days. To image chondrogenic nodules, the cells were fixed using 4% formaldehyde (Electron Microscopy Sciences), and stained with 2 μg/mL Rhodamine B (Sigma-Aldrich) and 20 μM Nile Red (Sigma-Aldrich) [Johnson K., et. al, A Stem Cell-Based Approach to Cartilage Repair, Science, (2012). 336(6082), 717-721]. The nodules imaged (4 images per well at 4× magnification) by excitation at 531 nm and emission at 625 nm and quantified using the CellInsight CX5 (Thermo Scientific). Number of nodules in each well was normalized to the average of 3 DMSO treated wells on the same plate using Excel (Microsoft Inc.). The normalized averages (fold change over DMSO) of 3 replicate wells for each compound concentration were calculated. Due to solubility limitations of some of the compounds, curve fitting was incomplete leading to inaccurate EC50 determinations.
Using TGF-β3 as a positive control, the concentration of representative compounds required to induce 50% levels of chondrogenesis is reported. In addition, the maximum activity of each compound and the respective dose that each compound reached maximum chondrogenesis activity is reported.

As to `CCCCC(=O)Nc1cncc(-c2ccc3[nH]nc(-c4cc5c(N6CCCCC6)cccc5[nH]4)c3n2)c1` [Compound 187, N-(5-(3-(4-(Piperidin-1-yl)-1H-indol-2-yl)-1H-pyrazolo[4,3-b]pyridin-5-yl)pyridin-3-yl)pentanamide], in experiment [1], the EC50 came to 2040 nM. In experiment [2], the EC50 stood at 100 nM and the Emax is 69%.
In the same order, the values of `Cc1ccncc1-c1ccc2[nH]nc(-c3cc4c(N5CCN(C)CC5)cccc4[nH]3)c2n1` [Compound 229, 3-(4-(4-Methylpiperazin-1-yl)-1H-indol-2-yl)-5-(4-methylpyridin-3-yl)-1H-pyrazolo[4,3-b]pyridine] are 4920 nM, 10 nM and 63%.
In turn, `CN1CCN(c2cccc3[nH]c(-c4n[nH]c5ccc(-c6cncc(NC(=O)c7ccccc7)c6)nc45)cc23)CC1` [Compound 235, N-(5-(3-(4-(4-Methylpiperazin-1-yl)-1H-indol-2-yl)-1H-pyrazolo[4,3-b]pyridin-5-yl)pyridin-3-yl)benzamide] showed an EC50 in experiment [1] of 1690 nM. Further, in experiment [2], the Emax was determined as 19%.
Turning to `CN1CCN(c2cccc3[nH]c(-c4n[nH]c5ccc(-c6cncnc6)nc45)cc23)CC1` [Compound 251, 3-(4-(4-Methylpiperazin-1l-yl)-1H-indol-2-yl)-5-(pyrimidin-5-yl)-1H-pyrazolo[4,3-b]pyridine], the EC50 in experiment [1] was 7790 nM; in experiment [2], 100 nM. Further, the Emax in experiment [2] was determined as 67%.
The molecule `CN(C)Cc1cncc(-c2ccc3[nH]nc(-c4cc5ccccc5[nH]4)c3n2)c1` [Compound 265, 1-(5-(3-(1H-Indol-2-yl)-1H-pyrazolo[4,3-b]pyridin-5-yl)pyridin-3-yl)-N,N-dimethylmethanamine] came in with an EC50 in experiment [1] of 521 nM. Also, the Emax in experiment [2] was 21%.
Turning to `FC1(F)CCN(Cc2cncc(-c3ccc4[nH]nc(-c5cc6ccccc6[nH]5)c4n3)c2)C1` [Compound 278, 5-(5-((3,3-Difluoropyrrolidin-1-yl)methyl)pyridin-3-yl)-3-(1H-indol-2-yl)-1H-pyrazolo[4,3-b]pyridine], the EC50 in experiment [1] amounted to 90 nM. For the same molecule, in experiment [2], the EC50 was 2700 nM and the Emax is 293%.
In the same order, the values of `CN(C)c1cncc(-c2ccc3[nH]nc(-c4cc5c(-c6ccoc6)cccc5[nH]4)c3n2)c1` [Compound 315, 5-(3-(4-(Furan-3-yl)-1H-indol-2-yl)-1H-pyrazolo[4,3-b]pyridin-5-yl)-N,N-dimethylpyridin-3-amine] are 631 nM, 2700 nM and 80%.
The molecule `c1cc(-c2ccoc2)c2cc(-c3n[nH]c4ccc(-c5cncc(CNCC6CCCC6)c5)nc34)[nH]c2c1` [Compound 333, 1-Cyclopentyl-N-((5-(3-(4-(furan-3-yl)-1H-indol-2-yl)-1H-pyrazolo[4,3-b]pyridin-5-yl)pyridin-3-yl)methyl)methanamine] gave an EC50 in experiment [1] of 955 nM. In experiment [2], the Emax amounted to 25%.
In experiment [1], `CN(C)CCNc1cc(F)cc(-c2cccc3[nH]c(-c4n[nH]c5ccc(-c6cccnc6)nc45)cc23)c1` [Compound 452, N^1-(3-Fluoro-5-(2-(5-(pyridin-3-yl)-1H-pyrazolo[4,3-b]pyridin-3-yl)-1H-indol-4-yl)phenyl)-N^2,N^2-dimethylethane-1,2-diamine] gave an EC50 of 38 nM. Also, in experiment [2], the EC50 was found to be 2700 nM and the Emax came to 67%.
Molecule `CN(C)CCNc1cc(F)cc(-c2cccc3[nH]c(-c4n[nH]c5ccc(-c6cncc(CN7CCCCC7)c6)nc45)cc23)c1` [Compound 463, N^1-(3-Fluoro-5-(2-(5-(5-(piperidin-1-ylmethyl)pyridin-3-yl)-1H-pyrazolo [4,3-b]pyridin-3-yl)-1H-indol-4-yl)phenyl)-N^2,N^2-dimethylethane-1,2-diamine] showed an EC50 in experiment [1] of 772 nM. The Emax in experiment [2] amounted to 48%.
Turning to `CN(C)CCNc1cc(F)cc(-c2cccc3[nH]c(-c4n[nH]c5ccc(-c6cncnc6)nc45)cc23)c1` [Compound 475, N^1-(3-Fluoro-5-(2-(5-(pyrimidin-5-yl)-1H-pyrazolo[4,3-b]pyridin-3-yl)-1H-indol-4-yl)phenyl)-N^2,N^2-dimethylylethane-1,2-diamine], in experiment [1], the EC50 was 306 nM. Besides, in experiment [2], the EC50 was 10 nM and the Emax was found to be 181%.
In the case of `CN(C)CCNc1cc(F)cc(-c2cccc3[nH]c(-c4n[nH]c5ccc(-c6ccccn6)nc45)cc23)c1` [Compound 476, N^1-(3-Fluoro-5-(2-(5-(pyridin-2-yl)-1H-pyrazolo[4,3-b]pyridin-3-yl)-1H-indol-4-yl)phenyl)-N^2,N^2-dimethylethane-1,2-diamine], the EC50 in experiment [1] is 2120 nM. For the same molecule, the Emax in experiment [2] was 42%.
`Cc1ccncc1-c1ccc2[nH]nc(-c3cc4c(-c5cc(F)cc(CNS(C)(=O)=O)c5)cccc4[nH]3)c2n1` [Compound 481, N-(3-Fluoro-5-(2-(5-(4-methylpyridin-3-yl)-1H-pyrazolo[4,3-b]pyridin-3-yl)-1H-indol-4-yl)benzyl)methanesulfonamide] gave an EC50 in experiment [1] of 78 nM. In experiment [2], the EC50 is 900 nM and the Emax turned out to be 143%.
In the same order, the values of `c1cc(-c2ccncc2)c2cc(-c3n[nH]c4ccc(-c5cncc(OCCN6CCCC6)c5)nc34)[nH]c2c1` [Compound 606, 3-(4-(Pyridin-4-yl)-1H-indol-2-yl)-5-(5-(2-(pyrrolidin-1-yl)ethoxy)pyridin-3-yl)-1H-pyrazolo[4,3-b]pyridine] are 1280 nM, 900 nM and 74%.
Take `O=C(CC1CCNCC1)Nc1cncc(-c2ccc3[nH]nc(-c4cc5c(-c6ccccn6)cccc5[nH]4)c3n2)c1` [Compound 621, 2-(Piperidin-4-yl)-N-(5-(3-(4-(pyridin-2-yl)-1H-indol-2-yl)-1H-pyrazolo[4,3-b]pyridin-5-yl)pyridin-3-yl)acetamide]: the EC50 in experiment [1] amounted to 2120 nM. In experiment [2], the Emax came to 8%.
In the same order, the values of `c1cc(N2CCCCC2)c2cc(-c3n[nH]c4ccc(-c5cncc(OC6CCNCC6)c5)nc34)[nH]c2c1` [Compound 636, 3-(4-(Piperidin-1-yl)-1H-indol-2-yl)-5-(5-(piperidin-4-yloxy)pyridin-3-yl)-1H-pyrazolo[4,3-b]pyridine] are 3900 nM and 34%.

The values above are taken from patent US10226453B2, “3-(1H-indol-2-yl)-1H-pyrazolo[4,3-B]pyridines and therapeutic uses thereof” (Samumed, LLC, priority 2015, dated 2019).
